Results from US11479551B2, “MTA-cooperative PRMT5 inhibitors” (Mirati Therapeutics, Inc., priority 2019, dated 2022).
Read-outs that look alike come from different tables or passages of the source.

Target: PRMT5/MEP50 complex (Homo sapiens (Human), UniProt O14744)
Assay: PRMT5:MEP50 FlashPlate Assay (histone H4 peptide substrate, plus and minus MTA)
Format: biochemical
Method: The PRMT5 inhibitory activity of compounds of the present invention was determined using either a PRMT5:MEP50 FlashPlate Assay (Reaction Biology Corporation) or a PRMT5:MEP50 HotSpot Assay (Reaction Biology Corporation).
1. PRMT5:MEP50 FlashPlate Assay

[1] = IC50 + 2 μM MTA (nM), in the presence of 2 μM MTA
[2] = in the absence of MTA, read-out: IC50
[3] = read-out: IC50 + 2 μM MTA, in the presence of 2 μM MTA

PRMT5/MEP50 complex, sequence (O14744 2-637): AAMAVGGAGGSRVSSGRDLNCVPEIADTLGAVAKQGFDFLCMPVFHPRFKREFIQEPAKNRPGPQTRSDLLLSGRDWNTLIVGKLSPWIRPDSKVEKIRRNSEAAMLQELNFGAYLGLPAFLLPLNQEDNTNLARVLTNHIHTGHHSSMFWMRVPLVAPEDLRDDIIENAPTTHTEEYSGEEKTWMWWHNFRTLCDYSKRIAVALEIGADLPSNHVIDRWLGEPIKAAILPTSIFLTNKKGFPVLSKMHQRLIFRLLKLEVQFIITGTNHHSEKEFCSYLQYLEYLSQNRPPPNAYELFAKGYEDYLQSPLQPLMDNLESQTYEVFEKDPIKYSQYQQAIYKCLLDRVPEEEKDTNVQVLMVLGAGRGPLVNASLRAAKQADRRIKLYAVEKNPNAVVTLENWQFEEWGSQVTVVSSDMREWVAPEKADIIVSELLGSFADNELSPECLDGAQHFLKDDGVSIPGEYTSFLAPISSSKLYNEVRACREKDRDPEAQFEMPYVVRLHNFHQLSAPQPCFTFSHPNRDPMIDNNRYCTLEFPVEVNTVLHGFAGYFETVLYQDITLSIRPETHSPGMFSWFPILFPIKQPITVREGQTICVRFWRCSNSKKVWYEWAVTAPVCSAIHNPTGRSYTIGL
PRMT5/MEP50 complex, sequence (Q9BQA1 2-342 partner): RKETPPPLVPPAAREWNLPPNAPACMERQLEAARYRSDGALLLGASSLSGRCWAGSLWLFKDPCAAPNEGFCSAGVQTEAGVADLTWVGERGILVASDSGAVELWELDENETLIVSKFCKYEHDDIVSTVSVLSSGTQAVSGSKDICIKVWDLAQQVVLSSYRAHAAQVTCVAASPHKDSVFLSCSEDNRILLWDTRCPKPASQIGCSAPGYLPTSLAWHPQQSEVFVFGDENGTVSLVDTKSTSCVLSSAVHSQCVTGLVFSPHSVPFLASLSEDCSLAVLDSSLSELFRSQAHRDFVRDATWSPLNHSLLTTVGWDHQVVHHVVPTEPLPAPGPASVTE

| SMILES | IC50 [1] | IC50 [2] | IC50 [3] |
| --- | --- | --- | --- |
| Cn1cncc1-c1ccc2c(=O)[nH]nc(CN)c2c1 [Example 3-30, 4-(aminomethyl)-6-(1-methyl-1H-imidazol-5-yl)phthalazin-1(2H)-one] | 7700 nM | 85200 nM |  |
| NCc1n[nH]c(=O)c2ccc(-c3cnc[nH]3)cc12 [Example 3-31, 4-(aminomethyl)-6-(1H-imidazol-5-yl)phthalazin-1(2H)-one] | 80000 nM | > 100000 nM |  |
| NCc1n[nH]c(=O)c2ccc(-c3cnn(CCO)c3)cc12 [Example 3-32, 4-(aminomethyl)-6-(1-(2-hydroxyethyl)-1H-pyrazol-4-yl)phthalazin-1(2H)-one] |  | 11600 nM | 710 nM |
| NCc1n[nH]c(=O)c2ccc(-c3cncc(C4CC4)c3)cc12 [Example 3-33, 4-(aminomethyl)-6-(5-cyclopropylpyridin-3-yl)phthalazin-1(2H)-one] | 61 nM | 1570 nM |  |
| CCCc1cncc(-c2ccc3c(=O)[nH]nc(CN)c3c2)c1 [Example 3-34, 4-(aminomethyl)-6-(5-propylpyridin-3-yl)phthalazin-1(2H)-one] | 73 nM | 2040 nM |  |
| NCc1n[nH]c(=O)c2ccc(-c3cncc(CC4CC4)c3)cc12 [Example 3-35, 4-(aminomethyl)-6-(5-(cyclopropylmethyl)pyridin-3-yl)phthalazin-1(2H)-one] | 59 nM | 1530 nM |  |
| NCc1n[nH]c(=O)c2ccc(-c3cncc(C(F)F)c3)cc12 [Example 3-36, 4-(aminomethyl)-6-(5-(difluoromethyl)pyridin-3-yl)phthalazin-1(2H)-one] | 450 nM | 9130 nM |  |
| N#Cc1cncc(-c2ccc3c(=O)[nH]nc(CN)c3c2)c1 [Example 3-37, 5-(4-(aminomethyl)-1-oxo-1,2-dihydrophthalazin-6-yl)nicotinonitrile] | 3200 nM | 72100 nM |  |
| N#Cc1cncc(-c2ccc3c(=O)[nH]nc(CN)c3c2)c1F [Example 3-38] |  | 4940 nM | 370 nM |
| CC#Cc1cncc(-c2ccc3c(=O)[nH]nc(CN)c3c2)c1 [Example 3-39, 4-(aminomethyl)-6-(5-(prop-1-yn-1-yl)pyridin-3-yl)phthalazin-1(2H)-one] | 920 nM | 24300 nM |  |
| NCc1n[nH]c(=O)c2ccc(-c3cncc(F)c3)cc12 [Example 3-41, 4-(aminomethyl)-6-(5-fluoropyridin-3-yl)phthalazin-1(2H)-one] | 1600 nM | 27500 nM |  |
| NCc1n[nH]c(=O)c2ccc(-c3cncc(Cl)c3)cc12 [Example 3-42, 4-(aminomethyl)-6-(5-chloropyridin-3-yl)phthalazin-1(2H)-one] | 200 nM | 3580 nM |  |
| NCc1n[nH]c(=O)c2ccc(-c3cncc(C(F)(F)F)c3)cc12 [Example 3-43, 4-(aminomethyl)-6-(5-(trifluoromethyl)pyridin-3-yl)phthalazin-1(2H)-one] | 340 nM | 6500 nM |  |
| NCc1n[nH]c(=O)c2ccc(-c3cncc(O)c3)cc12 [Example 3-44, 4-(aminomethyl)-6-(5-hydroxypyridin-3-yl)phthalazin-1(2H)-one] | 1200 nM | 19400 nM |  |
| COc1cncc(-c2ccc3c(=O)[nH]nc(CN)c3c2)c1 [Example 3-45, 4-(aminomethyl)-6-(5-methoxypyridin-3-yl)phthalazin-1(2H)-one] | 370 nM | 6810 nM |  |
| COCc1cncc(-c2ccc3c(=O)[nH]nc(CN)c3c2)c1 [Example 3-46, 4-(aminomethyl)-6-(5-(methoxymethyl)pyridin-3-yl)phthalazin-1(2H)-one] | 570 nM | 7880 nM |  |
| NCc1n[nH]c(=O)c2ccc(-c3cncc(CO)c3)cc12 [Example 3-47, 4-(aminomethyl)-6-(5-(hydroxymethyl)pyridin-3-yl)phthalazin-1(2H)-one] | 56 nM | 2950 nM |  |
| CS(=O)(=O)c1cncc(-c2ccc3c(=O)[nH]nc(CN)c3c2)c1 [Example 3-48, 4-(aminomethyl)-6-(5-(methylsulfonyl)pyridin-3-yl)phthalazin-1(2H)-one] | 280 nM | 7980 nM |  |
| CCOc1cncc(-c2ccc3c(=O)[nH]nc(CN)c3c2)c1 [Example 3-49, 4-(aminomethyl)-6-(5-ethoxypyridin-3-yl)phthalazin-1(2H)-one] | 110 nM | 3850 nM |  |
| NCc1n[nH]c(=O)c2ccc(-c3cncc(OC(F)F)c3)cc12 [Example 3-51, 4-(aminomethyl)-6-(5-(difluoromethoxy)pyridin-3-yl)phthalazin-1(2H)-one] | 500 nM | 11100 nM |  |
| CC(C)Oc1cncc(-c2ccc3c(=O)[nH]nc(CN)c3c2)c1 [Example 3-52, 4-(aminomethyl)-6-(5-isopropoxypyridin-3-yl)phthalazin-1(2H)-one] | 370 nM | 3000 nM |  |

| SMILES | IC50 [1] | IC50 [2] | IC50 [3] |
| --- | --- | --- | --- |
| NCc1n[nH]c(=O)c2ccc(-c3cncc(OCC4CC4)c3)cc12 [Example 3-53, 4-(aminomethyl)-6-(5-(cyclopropylmethoxy)pyridin-3-yl)phthalazin-1(2H)-one] | 28 nM | 1350 nM |  |
| NCc1n[nH]c(=O)c2ccc(-c3cncc4ccccc34)cc12 [Example 3-54, 4-(aminomethyl)-6-(isoquinolin-4-yl)phthalazin-1(2H)-one] | 64 nM | 1290 nM |  |
| NCc1n[nH]c(=O)c2ccc(-c3cncc4[nH]ccc34)cc12 [Example 3-55, 4-(aminomethyl)-6-(1H-pyrrolo[2,3-c]pyridin-4-yl)phthalazin-1(2H)-one] | 83 nM | 1870 nM |  |
| Cc1c(Cl)cncc1-c1ccc2c(=O)[nH]nc(CN)c2c1 [Example 3-56, 4-(aminomethyl)-6-(5-chloro-4-methylpyridin-3-yl)phthalazin-1(2H)-one] | 550 nM | 11500 nM |  |
| NCc1n[nH]c(=O)c2ccc(-c3nncn3Cc3ccccc3)cc12 [Example 3-57, 4-(aminomethyl)-6-(4-benzyl-4H-1,2,4-triazol-3-yl)phthalazin-1(2H)-one] | 30000 nM |  |  |
| NCc1n[nH]c(=O)c2ccc(-c3cncc(N4CCOCC4)c3)cc12 [Example 3-58, 4-(aminomethyl)-6-(5-morpholinopyridin-3-yl)phthalazin-1(2H)-one] | 510 nM | 8070 nM |  |
| Cc1ccccc1-c1ccc2c(=O)[nH]nc(CN)c2c1 [Example 3-60, 4-(aminomethyl)-6-(o-tolyl)phthalazin-1(2H)-one] | 8100 nM | > 100000 nM |  |
| CC(C)c1c[nH]c2ncc(-c3ccc4c(=O)[nH]nc(CN)c4c3)cc12 [Example 3-61, 4-(aminomethyl)-6-(3-isopropyl-1H-pyrrolo[2,3-b]pyridin-5-yl)phthalazin-1(2H)-one] | 3.4 nM | 80 nM |  |
| NCc1n[nH]c(=O)c2ccc(-c3cccnn3)cc12 [Example 4-1, 4-(aminomethyl)-6-(pyridazin-3-yl)phthalazin-1(2H)-one] | 45000 nM | > 100000 nM |  |
| NCc1n[nH]c(=O)c2ccc(-c3cnsc3)cc12 [Example 4-2, 4-(aminomethyl)-6-(isothiazol-4-yl)phthalazin-1(2H)-one] | 490 nM | 13800 nM |  |
| NCc1n[nH]c(=O)c2ccc(-c3cnc4ccccn34)cc12 [Example 4-3, 4-(aminomethyl)-6-(imidazo[1,2-a]pyridin-3-yl)phthalazin-1(2H)-one] | 37 nM | 926 nM |  |
| Cc1ncc(-c2ccc3c(=O)[nH]nc(CN)c3c2)n1C [Example 4-4, 4-(aminomethyl)-6-(1,2-dimethyl-1H-imidazol-5-yl)phthalazin-1(2H)-one] | 230 nM | 5910 nM |  |
| Cc1c(-c2ccc3c(=O)[nH]nc(CN)c3c2)cncc1C1CC1 [Example 4-5, 4-(aminomethyl)-6-(5-cyclopropyl-4-methylpyridin-3-yl)phthalazin-1(2H)-one] | 150 nM | 1730 nM |  |
| N#Cc1ncccc1-c1ccc2c(=O)[nH]nc(CN)c2c1 [Example 4-7, 3-(4-(aminomethyl)-1-oxo-1,2-dihydrophthalazin-6-yl)picolinonitrile] | 8400 nM | > 100000 nM |  |
| Cn1ncc(-c2cncc(-c3ccc4c(=O)[nH]nc(CN)c4c3)c2)c1C#N [Example 4-8, 4-(5-(4-(aminomethyl)-1-oxo-1,2-dihydrophthalazin-6-yl)pyridin-3-yl)-1-methyl-1H-pyrazole-5-carbonitrile] | 440 nM | > 100000 nM |  |
| NCc1n[nH]c(=O)c2ccc(-c3cncc(OC(F)(F)F)c3)cc12 [Example 4-9, 4-(aminomethyl)-6-(5-(trifluoromethoxy)pyridin-3-yl)phthalazin-1(2H)-one] | 590 nM | 16000 nM |  |
| N#Cc1ccn(-c2cncc(-c3ccc4c(=O)[nH]nc(CN)c4c3)c2)n1 [Example 4-10, 1-(5-(4-(aminomethyl)-1-oxo-1,2-dihydrophthalazin-6-yl)pyridin-3-yl)-1H-pyrazole-3-carbonitrile] | 1000 nM | > 100000 nM |  |
| CN1CCn2ncc(-c3ccc4c(=O)[nH]nc(CN)c4c3)c2C1 [Example 4-11, 4-(aminomethyl)-6-(5-methyl-4,5,6,7-tetrahydropyrazolo[1,5-a]pyrazin-3-yl)phthalazin-1(2H)-one] | 110 nM | 2400 nM |  |
| NCc1n[nH]c(=O)c2ccc(-c3cncc4nccn34)cc12 [Example 4-12, 4-(aminomethyl)-6-(imidazo[1,2-a]pyrazin-5-yl)phthalazin-1(2H)-one] | 7400 nM | > 100000 nM |  |
| NCc1n[nH]c(=O)c2ccc(-c3cncn4cccc34)cc12 [Example 4-13, 4-(aminomethyl)-6-(pyrrolo[1,2-c]pyrimidin-4-yl)phthalazin-1(2H)-one] | 210 nM | 2560 nM |  |
| Cc1nc2ccc(Cl)nn2c1-c1ccc2c(=O)[nH]nc(CN)c2c1 [Example 4-14, 4-(aminomethyl)-6-(6-chloro-2-methylimidazo[1,2-b]pyridazin-3-yl)phthalazin-1(2H)-one] | 7900 nM | > 100000 nM |  |
